# Results taken from patent US11147772B2, “Timed, pulsatile release systems” (Adare Pharmaceuticals, Inc., priority 2005, dated 2021).
# Counter-ions that a name gives are not always drawn.
# What was measured:
# [1] = pH of representative drugs suspended in water; assay type: physicochemical; conditions: for pH when suspended in purified water (range over the concentrations of Table 1): range over tested solid contents; for Acidity/Alkalinity: drug suspended in water
# [2] = Drug release (dissolution) testing of TPR beads in two-stage medium, lag-time; assay type: physicochemical; conditions: expected from higher alkalinity, given coating conditions
# Protocol: Dissolution testing of IR beads and enteric coated beads (for acid resistance testing) is conducted with a USP Apparatus 1 (baskets at 100 rpm) or Apparatus 2 (paddles at 50 rpm) in 900 mL of 0.1N HCl at 37° C. while the dissolution testing of TPR beads is conducted in a USP apparatus using a two-stage dissolution medium (first 2 hours in 700 mL of 0.1N HCl at 37° C. followed by dissolution testing at pH=6.8 obtained by the addition of 200 mL of pH modifier). Drug release with time is determined by HPLC on samples pulled at selected intervals.
# Drug Release Testing: The drug release profiles were generated by dissolution testing per US Pharmacopoeia method (Apparatus 1 with baskets at 100 rpm or Apparatus 2 with paddles at 50 rpm) using 700 mL of p H 1.2 buffer for 2 hours followed by testing in 900 mL of pH 6.8 for the remaining time-points). The IR and enteric-coated beads were tested in 900 mL of 0.1N HCl for 1 and 1.5 hrs, respectively. The samples pulled at different time-points were quantified by HPLC.
# [3] = drug concentration (solid content) 0.1 mg/mL in water
# [4] = drug concentration (solid content) 1.0 mg/mL in water
# [5] = drug concentration (solid content) 10 mg/mL in water
# [6] = drug concentration (solid content) 0.2 mg/mL in water
# [7] = drug concentration (solid content) 2.0 mg/mL in water
# [8] = drug concentration (solid content) 20 mg/mL in water
Compound,"pH of Solution/Suspension [1, 3]","pH of Solution/Suspension [1, 4]","pH of Solution/Suspension [1, 5]",pH when suspended in purified water (range over the concentrations of Table 1) [1],lag time relative to nizatidine [2],Acidity/Alkalinity [1],"pH of Solution/Suspension [1, 6]","pH of Solution/Suspension [1, 7]","pH of Solution/Suspension [1, 8]"
CC(C)NCC(O)COc1ccc(CC(N)=O)cc1 (stereo not shown) [Atenolol],pH = 7.9,pH = 10.9,pH = 11.0,7.9-11.0,shorter lag time than nizatidine,,,,
CN(C)CCC=C1c2ccccc2C=Cc2ccccc21 [Cyclobenzaprine Hydrochloride],pH = 6.1,pH = 6.5,pH = 6.7,,,"Acidic (exhibiting a pH of 7.0, or less, when suspended in water at a solid content of 2 mg/mL is designated as an acidic drug)",,,
CNC(=C[N+](=O)[O-])NCCSCc1csc(CN(C)C)n1 [Nizatidine],,,,6.5-8.7,,"Alkaline (an API exhibiting a pH of 7.0, or greater, is designated as an alkaline drug)",pH = 6.5,pH = 7.4,pH = 8.7
CC(C)NCC(O)COc1cccc2ccccc12 (stereo not shown) [Propranolol Hydrochloride],,,,5.7-6.5,,"Acidic (exhibiting a pH of 7.0, or less, when suspended in water at a solid content of 2 mg/mL is designated as an acidic drug)",pH = 5.7,pH = 6.0,pH = 6.5
